ChEMBL document CHEMBL1201862, “PubChem BioAssay data set” (2004)
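Compound exposure: 48 hours, 5 concentrations, 96-well plates. Abbreviation: GI50, concentration required for 50% inhibition of growth.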 Active and inactive are the calls of the source. No stated cut-off is given here; in the data, active = GI50 up to about 1.1 µM and inactive = higher.

Tests used:
Assay in all cases: NCI anticancer screen, dose series, 48 h
HL-60 = test system: HL-60
OVCAR-5 = test system: OVCAR-5
T47D = test system: T47D
UO-31 = test system: UO-31
ACHN = test system: ACHN
M19-MEL = test system: M19-MEL
OVCAR-4 = test system: OVCAR-4
CCRF-CEM = test system: CCRF-CEM
NCI-H522 = test system: NCI-H522
TK-10 = test system: TK-10
UACC-62 = test system: UACC-62
SW-620 = test system: SW-620
Malme-3M = test system: Malme-3M
NCI-H460 = test system: NCI-H460
MCF7 = test system: MCF7
COLO 205 = test system: COLO 205
HCT-116 = test system: HCT-116
MDA-MB-231 = test system: MDA-MB-231
EKVX = test system: EKVX
DU-145 = test system: DU-145

Compound	GI50 (HL-60)	GI50 (OVCAR-5)	GI50 (T47D)	GI50 (UO-31)	GI50 (ACHN)	GI50 (M19-MEL)	GI50 (OVCAR-4)	GI50 (CCRF-CEM)	GI50 (NCI-H522)	GI50 (TK-10)	GI50 (UACC-62)	GI50 (SW-620)	GI50 (Malme-3M)	GI50 (NCI-H460)	GI50 (MCF7)	GI50 (COLO 205)	GI50 (HCT-116)	GI50 (MDA-MB-231)	GI50 (EKVX)	GI50 (DU-145)
CCOC(=O)c1c(C)c(C)n2c1NC(=O)C2	> 100 µM (inactive)	> 100 µM (inactive)	21.1 µM (inactive)	> 64.3 µM (inactive)	> 76.2 µM (inactive)	> 100 µM (inactive)	> 100 µM (inactive)	> 100 µM (inactive)	> 43.7 µM (inactive)	> 55.8 µM (inactive)	> 60.3 µM (inactive)	> 54 µM (inactive)	> 50.7 µM (inactive)	> 53.1 µM (inactive)	25.2 µM (inactive)	> 73.6 µM (inactive)	36.6 µM (inactive)	39 µM (inactive)	> 60.5 µM (inactive)	20.8 µM (inactive)
NC(=O)COc1ccccc1	> 100 µM (inactive)	> 100 µM (inactive)	–	> 100 µM (inactive)	> 100 µM (inactive)	> 100 µM (inactive)	> 100 µM (inactive)	> 100 µM (inactive)	> 100 µM (inactive)	> 100 µM (inactive)	> 100 µM (inactive)	> 100 µM (inactive)	> 100 µM (inactive)	> 100 µM (inactive)	–	> 100 µM (inactive)	> 100 µM (inactive)	–	> 100 µM (inactive)	–
N#CCC(=O)N/N=C(\CCN1CCCC1)CC(c1ccccc1)c1c(O)c2ccccc2oc1=O (stereo unspecified)	24.5 µM (inactive)	> 100 µM (inactive)	–	59.8 µM (inactive)	> 60.4 µM (inactive)	78.7 µM (inactive)	> 86.3 µM (inactive)	39.4 µM (inactive)	70.6 µM (inactive)	> 78.9 µM (inactive)	> 80.2 µM (inactive)	> 58.2 µM (inactive)	60 µM (inactive)	> 100 µM (inactive)	20.2 µM (inactive)	25.5 µM (inactive)	> 84.1 µM (inactive)	40.3 µM (inactive)	> 100 µM (inactive)	> 100 µM (inactive)
CCC1=CCN(c2cc(C)ccn2)OC1c1ccccc1 (stereo unspecified)	18.3 µM (inactive)	> 100 µM (inactive)	–	50 µM (inactive)	45.5 µM (inactive)	34.4 µM (inactive)	59.8 µM (inactive)	35.7 µM (inactive)	18.5 µM (inactive)	–	39.2 µM (inactive)	32.2 µM (inactive)	26.5 µM (inactive)	38.4 µM (inactive)	–	40.6 µM (inactive)	30.8 µM (inactive)	–	56.4 µM (inactive)	–
O=C1NCCS(=O)(=O)N[C@@H](CC2=CC=CCC2)C(=O)N2CCCC12 (stereo partly specified)	> 100 µM (inactive)	> 100 µM (inactive)	–	> 100 µM (inactive)	> 100 µM (inactive)	> 100 µM (inactive)	> 100 µM (inactive)	> 100 µM (inactive)	> 100 µM (inactive)	> 100 µM (inactive)	> 100 µM (inactive)	> 100 µM (inactive)	> 100 µM (inactive)	> 100 µM (inactive)	–	> 100 µM (inactive)	> 100 µM (inactive)	–	> 100 µM (inactive)	–
CC1(C2CCC3(C)C(C2)C3Sc2ccccc2)OCCO1 (stereo unspecified)	12.1 µM (inactive)	20.5 µM (inactive)	–	12.6 µM (inactive)	20.7 µM (inactive)	19.8 µM (inactive)	31.3 µM (inactive)	17.9 µM (inactive)	18.9 µM (inactive)	56.6 µM (inactive)	19.4 µM (inactive)	21.5 µM (inactive)	18.3 µM (inactive)	20.4 µM (inactive)	–	19.4 µM (inactive)	15.5 µM (inactive)	–	26.7 µM (inactive)	–
Cc1ccc(C2=Nc3ccccc3NC(=O)C2)cc1	51.2 µM (inactive)	> 100 µM (inactive)	–	> 100 µM (inactive)	> 100 µM (inactive)	> 100 µM (inactive)	> 100 µM (inactive)	38 µM (inactive)	98.4 µM (inactive)	> 100 µM (inactive)	> 100 µM (inactive)	27.7 µM (inactive)	> 100 µM (inactive)	> 100 µM (inactive)	–	> 100 µM (inactive)	> 100 µM (inactive)	–	> 100 µM (inactive)	–
CCNC(=O)OCc1c(COC(=O)NCC)c(-c2ccc(Cl)c(Cl)c2)n2c1CCC2	3.24 µM (inactive)	20.3 µM (inactive)	–	5.22 µM (inactive)	4.88 µM (inactive)	23.3 µM (inactive)	15.2 µM (inactive)	4.09 µM (inactive)	6.58 µM (inactive)	10.9 µM (inactive)	5.92 µM (inactive)	13.8 µM (inactive)	16.6 µM (inactive)	4.61 µM (inactive)	–	24.9 µM (inactive)	9.4 µM (inactive)	–	–	–
CC1OC(n2cc(F)c(=O)[nH]c2=O)C=CC1=O (stereo unspecified)	17.9 µM (inactive)	16 µM (inactive)	–	16.1 µM (inactive)	18 µM (inactive)	19.7 µM (inactive)	18.1 µM (inactive)	13.8 µM (inactive)	9.38 µM (inactive)	17 µM (inactive)	17.7 µM (inactive)	18.8 µM (inactive)	18.7 µM (inactive)	21.6 µM (inactive)	–	32.2 µM (inactive)	16.3 µM (inactive)	–	–	–
CO/N=C/c1cc(OC)c(OC)c(OC)c1	> 100 µM (inactive)	> 100 µM (inactive)	–	> 100 µM (inactive)	> 100 µM (inactive)	> 100 µM (inactive)	> 100 µM (inactive)	> 100 µM (inactive)	> 100 µM (inactive)	> 100 µM (inactive)	> 100 µM (inactive)	> 100 µM (inactive)	> 100 µM (inactive)	> 100 µM (inactive)	–	> 100 µM (inactive)	> 100 µM (inactive)	–	> 100 µM (inactive)	–
CCOC(=O)[C@H](Cc1ccccc1)NC(=O)c1nc[nH]c1[N+](=O)[O-]	> 100 µM (inactive)	–	–	> 100 µM (inactive)	> 100 µM (inactive)	> 100 µM (inactive)	> 100 µM (inactive)	> 100 µM (inactive)	> 100 µM (inactive)	> 100 µM (inactive)	> 100 µM (inactive)	> 100 µM (inactive)	> 100 µM (inactive)	> 100 µM (inactive)	–	> 100 µM (inactive)	> 100 µM (inactive)	–	> 100 µM (inactive)	–
CCOC(=O)CP(=S)(S)c1ccccc1 (stereo unspecified)	> 100 µM (inactive)	> 100 µM (inactive)	–	> 100 µM (inactive)	> 100 µM (inactive)	> 100 µM (inactive)	> 100 µM (inactive)	> 100 µM (inactive)	> 100 µM (inactive)	> 100 µM (inactive)	> 100 µM (inactive)	> 100 µM (inactive)	> 100 µM (inactive)	> 100 µM (inactive)	–	> 100 µM (inactive)	–	–	> 100 µM (inactive)	–
C=CC1[C@H]2COC(C)(C)O[C@@H]2CC(=O)C1(C)C (stereo partly specified)	> 100 µM (inactive)	> 100 µM (inactive)	–	> 100 µM (inactive)	94 µM (inactive)	> 100 µM (inactive)	> 100 µM (inactive)	–	> 100 µM (inactive)	> 100 µM (inactive)	–	> 100 µM (inactive)	> 100 µM (inactive)	> 100 µM (inactive)	–	> 100 µM (inactive)	> 100 µM (inactive)	–	54.2 µM (inactive)	–
CC1(C)CCC[C@@]2(C)C1CC[C@H]1CC(O)C3(C)CCC12C3 (stereo partly specified)	23.3 µM (inactive)	18.2 µM (inactive)	–	17.5 µM (inactive)	17.9 µM (inactive)	21.1 µM (inactive)	18.1 µM (inactive)	26.4 µM (inactive)	16.6 µM (inactive)	14.4 µM (inactive)	15.8 µM (inactive)	17.1 µM (inactive)	16.9 µM (inactive)	18.5 µM (inactive)	–	–	17.3 µM (inactive)	–	–	–
CC[C@@]1(O)C(=O)OCc2c1cc1n(c2=O)Cc2cc3cc(OC)ccc3nc2-1	0.018 µM (active)	0.0452 µM (active)	–	0.0333 µM (active)	0.00476 µM (active)	0.0537 µM (active)	0.00845 µM (active)	0.00457 µM (active)	0.0246 µM (active)	3.01 µM (inactive)	0.00244 µM (active)	0.0248 µM (active)	0.255 µM (active)	0.00607 µM (active)	0.0041 µM (active)	0.116 µM (active)	0.0197 µM (active)	0.0843 µM (active)	0.546 µM (active)	0.00439 µM (active)
COc1cc([C@@H]2c3cc4c(cc3C[C@H]3COC(=O)[C@@H]32)OCO4)cc(OC)c1OC [DESOXYPODOPHYLLOTOXIN]	0.00713 µM (active)	> 10.8 µM (inactive)	0.003 µM (active)	0.0986 µM (active)	0.00393 µM (active)	0.00986 µM (active)	–	0.00865 µM (active)	–	< 0.01 µM (active)	0.00912 µM (active)	0.0091 µM (active)	0.0149 µM (active)	–	0.00875 µM (active)	–	–	< 0.01 µM (active)	0.005 µM (active)	0.00273 µM (active)
C[C@@H]1C[C@H]2[C@@H]3CCC4=CC(=O)C=C[C@]4(C)[C@@]3(F)[C@@H](O)C[C@]2(C)[C@@]1(O)C(=O)CO [DEXAMETHASONE]	> 100 µM (inactive)	> 100 µM (inactive)	–	> 100 µM (inactive)	> 100 µM (inactive)	> 100 µM (inactive)	> 100 µM (inactive)	0.0239 µM (active)	> 100 µM (inactive)	> 100 µM (inactive)	> 100 µM (inactive)	> 100 µM (inactive)	> 100 µM (inactive)	–	–	> 100 µM (inactive)	> 100 µM (inactive)	–	83.6 µM (inactive)	–
